From patent US5178662A, “Benzaldehyde acetal compounds, preparation process thereof, and herbicidal compositions containing the same as active ingredients” (Mitsui Toatsu Chemicals, Inc., priority 1990, dated 1993) come the findings set out here.

The test system of series [1] is ALS (acetolactate syntase) from pea seedlings. As to the kind of experiment: ALS (acetolactate syntase) inhibition test, pea enzyme. Format: biochemical. The conditions noted are these: 10,000 ppm (0.5 μg/0.5 ml) of compound; 1 hour at 30° C.; absorbance at 525 nm. As for the experimental part:
(§1) To determine the selectivity in enzyme level between crops and weeds, an ALS inhibition test was conducted using pea as a typical broadleaf crop and barnyardgrass as a representative gramineous weeds.
(§2) After seeds of pea and barnyardgrass were allowed to germinate at 25° C. for 8-14 days in a dark place, partially-purified suspensions (Suspensions A) of acetolactate syntase were separately obtained from the seedlings in accordance with the procedures described in the literature, Plant Physiology, 75, 827-831. In a test tube, 0.5 mg of one of test compounds was weighed, followed by the addition of 0.15 ml of a 20 mM K2 HPO4 solution and 0.25 ml of a reaction substrate medium which consisted of 40 mM of K2 HPO4, 40 mM of sodium pyruvate, 1 mM of TPP, 1 mM of MgCl2 and 20 μM of FAD so that 0.4 ml of a reaction solution (Solution B) was prepared. Added to 0.4 ml of Solution B was 0.1 ml of Suspension A. After the resultant mixture was shaken for 1 hour in a thermostat water bath controlled at 30° C., 50 μl of 6N sulfuric acid were added to terminate the reaction.
(§3) Next, the test tube with the reaction-terminated liquid mixture contained therein was transferred into a thermostat water bath controlled at 60° C. and was heated for 15 minutes. Thereafter, 0.5 ml of a 0.5% creatine solution and 0.5 ml of a 5% alkaline α-naphthol solution were added, and the resultant mixture was maintained at 60° C. for 15 minutes. As a result, the test solution developed a pink-to-red color. After the above operation, the absorbance of the test solution at 525 nm was measured by a spectrophotometer (Absorbance 1 of Test Compound).
(§4) Further, the absorbance (Absorbance 2 of Blank) of a solution obtained by subjecting a portion of Solution B to the above procedures without addition of any test compound and the absorbance (Absorbance 3 of sulfuric acid) of another solution obtained by subjecting another portion of Solution B to the above procedures which using 50 μl of 6N sulfuric acid as a test compound were also measured.

For series [2], the system named is Johnsongrass. Nature of the series: Upland foliar application test, johnsongrass. Format: in vivo. The conditions noted are these: Sorghum halepense, 960 h; foliar application at stage of 2-3 leaves, 50 g ai/a, emulsion, 40th day after spray; read-out: Herbicidal effects Johnsongrass. The method, then:
(§5) Resin-made 1/1000-are pots were filled with the soil of an upland field. After they were fertilized, cotton and soybean were seeded and 3 cm soil covering was applied. Five days later, amaranth, common lambsquarters, barnyardgrass, green foxtail, large crabgrass and johnsongrass were seeded and 1 cm soil covering was applied. They were allowed to grow in a green house. When each plant grew to the stage of 2-3 leaves, an emulsion formulated from a predetermined amount of each test compound in a similar manner to the procedures described in Formulation Example 11 was diluted with water and then sprayed at a predetermined application rate by means of a pressure-operated sprayer. The application rate was controlled at 5 l per are. Influence to the crops and weeds were observed on the 40th day after the spray of the herbicides. The results are shown in Table 4 in which the degree of damages of each test plant and the degree of injury to each crop are shown in a similar manner to Test 2.

Series [3] concerns Crabgrass (Digitaria adscendens). Nature of the series: Upland foliar application test, large crabgrass. Format: in vivo. The conditions noted are these: 960 h, foliar application at stage of 2-3 leaves, 50 g ai/a, emulsion, 40th day after spray, read-out: Herbicidal effects Crabgrass (Digitaria adscendens). The method, then:
(§6) Resin-made 1/1000-are pots were filled with the soil of an upland field. After they were fertilized, cotton and soybean were seeded and 3 cm soil covering was applied. In addition, amaranth, common lambs-quarters, barnyardgrass, green foxtail, large crabgrass and johnsongrass were seeded and 1 cm soil covering was applied. One day later, a wettable powder prepared from a predetermined amount of each test compound in a similar manner to the procedures described in Formulation Example 1 was diluted with water and then sprayed evenly at an application rate equal to 10 l per are onto the surface of the soil by means of a pressure-operated sprayer. The weeds and crops were allowed to grow in a green house and influence to them were observed on the 50th day after the spray. The degree of damages of each test plant and the degree of injury to each crop were determined by measuring fresh weight in each group and indicated by % calculated according to the following formula. [formula]
as §5

Series [4] deals with ALS (acetolactate syntase) from barnyardgrass seedlings. As to the kind of experiment: ALS (acetolactate syntase) inhibition test, barnyardgrass enzyme. The class given is biochemical. Conditions: 10,000 ppm (0.5 μg/0.5 ml) of compound; 1 hour at 30° C.; absorbance at 525 nm. As for the experimental part:
as §1, §2, §3, §4

Series [5] concerns Barnyardgrass (Echinochloa crusgalli). As to the kind of experiment: Upland foliar application test, barnyardgrass. Format: in vivo. The conditions noted are these: Echinochloa crus-galli, 960 h; foliar application at stage of 2-3 leaves, 50 g ai/a, emulsion, 40th day after spray; read-out: Herbicidal effects Barnyardgrass (Echinochloa crusgalli). The method, then: as §5
In series [6] the test system is Foxtail (Setaria viridis). Nature of the series: Upland soil application test, green foxtail. Format: in vivo. Conditions: 1200 h, soil application one day after seeding, 50 g ai/a, wettable powder, fresh weight on 50th day after spray, read-out: Herbicidal effects Foxtail (Setaria viridis). The method, then: as §6
Series [7] has as its system Foxtail (Setaria viridis). Nature of the series: Upland foliar application test, green foxtail. The class given is in vivo. Conditions: 960 h, foliar application at stage of 2-3 leaves, 50 g ai/a, emulsion, 40th day after spray, read-out: Herbicidal effects Foxtail (Setaria viridis). The method, then:
as §6, §5

In series [8] the test system is Crabgrass (Digitaria adscendens). As to the kind of experiment: Upland soil application test, large crabgrass. Format: in vivo. The conditions noted are these: 1200 h, soil application one day after seeding, 50 g ai/a, wettable powder, fresh weight on 50th day after spray, read-out: Herbicidal effects Crabgrass (Digitaria adscendens). As for the experimental part: as §6

For series [9], the system named is Barnyardgrass (Echinochloa crusgalli). As to the kind of experiment: Upland soil application test, barnyardgrass. The class given is in vivo. Conditions: Echinochloa crus-galli, 1200 h; soil application one day after seeding, 50 g ai/a, wettable powder, fresh weight on 50th day after spray; read-out: Herbicidal effects Barnyardgrass (Echinochloa crusgalli). As for the experimental part:
as §6

Series [10] deals with Amaranth (Amaranthus viridis). As to the kind of experiment: Upland foliar application test, amaranth. The class given is in vivo. The conditions noted are these: 960 h, foliar application at stage of 2-3 leaves, 50 g ai/a, emulsion, 40th day after spray, read-out: Herbicidal effects Amaranth (Amaranthus viridis). As for the experimental part:
as §6, §5

The subject of series [11] is Cotton (Gossypium indicum). As to the kind of experiment: Upland foliar application test, crop injury cotton. Format: in vivo. The conditions noted are these: foliar application at stage of 2-3 leaves, 50 g ai/a, emulsion, 40th day after spray. The method, then:
as §6, §5

For series [12], the system named is common lambsquarters. Nature of the series: Upland soil application test, common lambsquarters. Format: in vivo. Conditions: Chenopodium album, 1200 h; soil application one day after seeding, 50 g ai/a, wettable powder, fresh weight on 50th day after spray; read-out: Herbicidal effects Common lambquarters. As for the experimental part:
as §6

The test system of series [13] is Cotton (Gossypium indicum). Nature of the series: Upland soil application test, crop injury cotton. Conditions: soil application one day after seeding, 50 g ai/a, wettable powder, fresh weight on 50th day after spray. The class given is in vivo. As for the experimental part: as §6
Series [14] has as its system Amaranth (Amaranthus viridis). Nature of the series: Upland soil application test, amaranth. The class given is in vivo. Conditions: 1200 h, soil application one day after seeding, 50 g ai/a, wettable powder, fresh weight on 50th day after spray, read-out: Herbicidal effects Amaranth (Amaranthus viridis). The method, then:
as §6

The subject of series [15] is Johnsongrass. Nature of the series: Upland soil application test, johnsongrass. The conditions noted are these: Sorghum halepense, 1200 h; soil application one day after seeding, 50 g ai/a, wettable powder, fresh weight on 50th day after spray; read-out: Herbicidal effects Johnsongrass. The class given is in vivo. The method, then:
as §6

The test system of series [16] is Soybean (Glycine max). Nature of the series: Upland foliar application test, crop injury soybean. The conditions noted are these: foliar application at stage of 2-3 leaves, 50 g ai/a, emulsion, 40th day after spray. Format: in vivo. The method, then:
as §5

Series [17] deals with common lambsquarters. Nature of the series: Upland foliar application test, common lambsquarters. Conditions: Chenopodium album, 960 h; foliar application at stage of 2-3 leaves, 50 g ai/a, emulsion, 40th day after spray; read-out: Herbicidal effects Common lambquarters. The class given is in vivo. As for the experimental part: as §5
Series [18] has as its system johnsongrass emerging from rhizome. As to the kind of experiment: Application test on johnsongrass emerging from rhizome. Conditions: foliar application at stage of 4-5 leaves, application rate of active ingredient 20 (unit not given), emulsion, 50th day after spray. The class given is in vivo. As for the experimental part: as §6
Resin-made 1/1000-are pots were filled with the soil of an upland field. After they were fertilized, rhizome of johnsongrass were transplanted to the pots and 3 cm soil covering was applied. They were allowed to grow in a green house. When each johnsongrass grew to the stage of 4-5 leaves, an emulsion formulated from a predetermined amount of each test compound in a similar manner to the procedures described in Formulation Example 11 was diluted with water and then sprayed at a predetermined application rate by means of a pressure-operated sprayer. The application rate was controlled at 5 l per are. The effect of each compound against the johnsongrass emerging from its rhizome was observed on the 50th day after the spray of the herbicides. The results are shown in Table 5 in which the herbicidal effect against johnsongrass is shown in a similar manner to Test 2.

The subject of series [19] is Soybean (Glycine max). Nature of the series: Upland soil application test, crop injury soybean. The class given is in vivo. Conditions: soil application one day after seeding, 50 g ai/a, wettable powder, fresh weight on 50th day after spray. As for the experimental part: as §6

Regarding `CCCCOC(OCCCC)c1ccccc1Oc1nc(OC)cc(OC)n1` [Compound No. 3, 2-(4,6-dimethoxypyrimidin-2-yloxy)benzaldehyde di-n-butylacetal], the “Enzymoreaction inhibition rate (%) Pea” value in [1] amounted to 0%. For the same molecule, the pest or weed control at 5000 g/ha in [2], in series [3], in [5], in series [6], in [7] and in [8] was 100% each time. Moreover, the pest or weed control at 5000 g/ha in series [9], in series [10], in series [12], in [14], in series [15] and in series [17] was 100% in each case. Further, the “Enzymoreaction inhibition rate (%) Barnyardgrass” value in series [4] is on record as 100%. Besides, the “Crop injury Cotton (Gossypium indicum)” value in series [11] and in [13] was 0% throughout. Moreover, the “Crop injury Soybean (Glycine max)” value in series [16] and in [19] was 0% in each case. The “Herbicidal effect against johnsongrass emerging from rhizome” value (“Herbicidal effect” for short) in series [18] is 100%.

On to `CCCCCCOC(OCCCCCC)c1ccccc1Oc1nc(OC)cc(OC)n1` [Compound No. 5, 2-(4,6-dimethoxypyrimidin-2-yloxy)benzaldehyde di-n-hexylacetal], for which the “Enzymoreaction inhibition rate (%) Pea” value in series [1] is 0%. The pest or weed control at 5000 g/ha in series [2], in series [3], in series [5], in series [6], in series [7] and in [8] was 100% throughout. The pest or weed control at 5000 g/ha in series [9], in [10], in [12], in series [14], in [15] and in series [17] was 100% throughout. For the same molecule, the “Enzymoreaction inhibition rate (%) Barnyardgrass” value in series [4] turned out to be 100%. Also, the “Crop injury Cotton (Gossypium indicum)” value in [11] and in series [13] was 0% each time. Moreover, the “Crop injury Soybean (Glycine max)” value in series [16] and in [19] was 0% throughout. Further, the “Herbicidal effect” value in series [18] came to 100%.

Consider `CCCCCCCOC(OCCCCCCC)c1ccccc1Oc1nc(OC)cc(OC)n1` [Compound No. 6], for which the “Enzymoreaction inhibition rate (%) Pea” value in [1] is 0%. For the same molecule, the pest or weed control at 5000 g/ha was 100% in series [2]; 90% in series [3]; 95% in series [5]; 100% in series [6]; 95% in [7]; 85% in [8]. In addition, the pest or weed control at 5000 g/ha in series [9] turned out to be 95%; in series [10], 95%; in series [12], 90%; in series [14], 95%; in series [15] it was 100%; in [17] it was 90%. Besides, in series [4], the “Enzymoreaction inhibition rate (%) Barnyardgrass” value is given as 100%. The “Crop injury Cotton (Gossypium indicum)” value in series [11] and in [13] was 0% in each case. For the same molecule, the “Crop injury Soybean (Glycine max)” value in [16] and in [19] was 0% in each case. Moreover, in [18], the “Herbicidal effect” value was 85%.

With `COc1cc(OC)nc(Oc2ccccc2C(OC(C)C)OC(C)C)n1` [Compound No. 2], the “Enzymoreaction inhibition rate (%) Pea” value in series [1] came to 0%. Also, the pest or weed control at 5000 g/ha in series [2] stood at 100%; in series [3], 85%; in series [5], 80%; in series [6] it was 85%; in [7], 100%; in series [8] it was 80%. The pest or weed control at 5000 g/ha in series [9] came out at 80%; in series [10], 100%; in [12] it was 85%; in series [14], 80%; in series [15], 100%; in series [17], 80%. Besides, the “Enzymoreaction inhibition rate (%) Barnyardgrass” value in series [4] is on record as 100%. The “Crop injury Cotton (Gossypium indicum)” value in series [11] and in series [13] was 0% each time. For the same molecule, the “Crop injury Soybean (Glycine max)” value in series [16] and in series [19] was 0% each time. Also, in series [18], the “Herbicidal effect” value is recorded as 95%.
